Data as given in US10806785B2, “Immunomodulator compounds and methods of use” (Incyte Corporation, priority 2016, dated 2020).

Target: PD-1/PD-L1 (Homo sapiens (Human), UniProt Q9NZQ7)
Assay: PD-1/PD-L1 binding assay (HTRF)
Outline: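 Fc-tagged human PD-1 (25-167) and His-tagged PD-L1 (19-238), listed as […] and 10 nM final, preincubated 40 min with inhibitors in PBS pH 7.4, 0.05% Tween-20, 0.1% BSA, 1% DMSO, 25 °C. Eu anti-IgG/APC anti-His added, 60 min, 665/620 nm HTRF ratio; IC50 fitted from percent control activity.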

PD-1/PD-L1, sequence (Q9NZQ7 19-238): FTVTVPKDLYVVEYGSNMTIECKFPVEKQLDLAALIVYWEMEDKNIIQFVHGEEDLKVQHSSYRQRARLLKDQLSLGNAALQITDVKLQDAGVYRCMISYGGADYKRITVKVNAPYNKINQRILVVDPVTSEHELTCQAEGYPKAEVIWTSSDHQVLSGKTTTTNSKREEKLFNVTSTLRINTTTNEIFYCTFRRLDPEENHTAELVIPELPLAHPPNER

| IC50 [nM] | Compound |
| --- | --- |
| ≤ 10 | Cc1c(NC(=O)c2cc(CN3CC[C@@H](C(=O)O)C3)cn(C)c2=O)cccc1-c1cccc(NC(=O)c2nc3c(n2C)CCN(C)C3)c1Cl [Example 49, (R)-1-((5-(2′-chloro-3′-(1,5-dimethyl-4,5,6,7-tetrahydro-1H-imidazo[4,5-c]pyridine-2-carboxamido)-2-methylbiphenyl-3-ylcarbamoyl)-1-methyl-6-oxo-1,6-dihydropyridin-3-yl)methyl)pyrrolidine-3-carboxylic acid] |
| ≤ 10 | Cc1c(NC(=O)c2cc(CN3CCCC3)cn(C)c2=O)cccc1-c1cccc(NC(=O)c2nc3c(n2C)CCN(C)C3)c1Cl [Example 50, N-(2-chloro-2′-methyl-3′-(1-methyl-2-oxo-5-(pyrrolidin-1-ylmethyl)-1,2-dihydropyridine-3-carboxamido)biphenyl-3-yl)-1,5-dimethyl-4,5,6,7-tetrahydro-1H-imidazo[4,5-c]pyridine-2-carboxamide] |
| ≤ 10 | Cc1c(NC(=O)c2cc(CN3CC[C@@H](O)C3)cn(C)c2=O)cccc1-c1cccc(NC(=O)c2nc3c(n2C)CCN(C[C@H](C)O)C3)c1Cl [Example 51, N-(2-chloro-3′-(5-(((R)-3-hydroxypyrrolidin-1-yl)methyl)-1-methyl-2-oxo-1,2-dihydropyridine-3-carboxamido)-2′-methylbiphenyl-3-yl)-5-((S)-2-hydroxypropyl)-1-methyl-4,5,6,7-tetrahydro-1H-imidazo[4,5-c]pyridine-2-carboxamide] |
| ≤ 10 | Cc1c(NC(=O)c2cc(CN3CCCC3)cn(C)c2=O)cccc1-c1cccc(NC(=O)c2nc3c(n2C)CCN(C[C@H](C)O)C3)c1Cl [Example 52, (S)—N-(2-chloro-2′-methyl-3′-(1-methyl-2-oxo-5-(pyrrolidin-1-ylmethyl)-1,2-dihydropyridine-3-carboxamido)biphenyl-3-yl)-5-(2-hydroxypropyl)-1-methyl-4,5,6,7-tetrahydro-1H-imidazo[4,5-c]pyridine-2-carboxamide] |
| ≤ 10 | Cc1c(-c2nc3c(s2)CN(C(=O)CN(C)C)C3)cccc1-c1cccc(NC(=O)c2nc3c(n2C)CCN(C)C3)c1Cl [Example 53, N-(2-chloro-3′-(5-(2-(dimethylamino)acetyl)-5,6-dihydro-4H-pyrrolo[3,4-d]thiazol-2-yl)-2′-methylbiphenyl-3-yl)-1,5-dimethyl-4,5,6,7-tetrahydro-1H-imidazo[4,5-c]pyridine-2-carboxamide] |
| ≤ 10 | Cc1c(COc2cc(OCc3cncc(C#N)c3)c(CN3CCCC[C@H]3C(=O)O)cc2Cl)cccc1-c1cccc(NC(=O)c2nc3c(n2C)CCN(C)C3)c1Cl [Example 54, (S)-1-(5-chloro-4-((2′-chloro-3′-(1,5-dimethyl-4,5,6,7-tetrahydro-1H-imidazo[4,5-c]pyridine-2-carboxamido)-2-methyl-[1,1′-biphenyl]-3-yl)methoxy)-2-((5-cyanopyridin-3-yl)methoxy)benzyl)piperidine-2-carboxylic acid] |
| ≤ 10 | CN1CCc2c(nc(C(=O)Nc3cccc(-c4cccc(NC(=O)c5nc6c(n5C)CCN(C[C@H]5CC[C@H](C(=O)O)CC5)C6)c4Cl)c3Cl)n2C)C1 [Example 60, trans-4-((2-(2,2′-dichloro-3′-(1,5-dimethyl-4,5,6,7-tetrahydro-1H-imidazo[4,5-c]pyridine-2-carboxamido)biphenyl-3-ylcarbamoyl)-1-methyl-6,7-dihydro-1H-imidazo[4,5-c]pyridin-5(4H)-yl)methyl)cyclohexane-1-carboxylic acid] |
| ≤ 10 | Cn1c(C(=O)Nc2cccc(-c3cccc(NC(=O)c4nc5c(n4C)CCN(C[C@H]4CC[C@H](C(=O)O)CC4)C5)c3Cl)c2Cl)nc2c1CCNC2 [Example 61, trans-4-((2-(2,2′-dichloro-3′-(1-methyl-4,5,6,7-tetrahydro-1H-imidazo[4,5-c]pyridine-2-carboxamido)biphenyl-3-ylcarbamoyl)-1-methyl-6,7-dihydro-1H-imidazo[4,5-c]pyridin-5(4H)-yl)methyl)cyclohexane-1-carboxylic acid] |
| ≤ 10 | CCN1CCc2c(nc(C(=O)Nc3cccc(-c4cccc(NC(=O)c5nc6c(n5C)CCN(C[C@H]5CC[C@H](C(=O)O)CC5)C6)c4Cl)c3Cl)n2C)C1 [Example 62, trans-4-((2-(2,2′-dichloro-3′-(5-ethyl-1-methyl-4,5,6,7-tetrahydro-1H-imidazo[4,5-c]pyridine-2-carboxamido)biphenyl-3-ylcarbamoyl)-1-methyl-6,7-dihydro-1H-imidazo[4,5-c]pyridin-5(4H)-yl)methyl)cyclohexane-1-carboxylic acid] |
| ≤ 10 | Cn1c(C(=O)Nc2cccc(-c3cccc(NC(=O)c4nc5c(n4C)CCN(C[C@H]4CC[C@H](C(=O)O)CC4)C5)c3Cl)c2Cl)nc2c1CCN(CC1CC1)C2 [Example 63, trans-4-((2-(2,2′-dichloro-3′-(5-(cyclopropylmethyl)-1-methyl-4,5,6,7-tetrahydro-1H-imidazo[4,5-c]pyridine-2-carboxamido)biphenyl-3-ylcarbamoyl)-1-methyl-6,7-dihydro-1H-imidazo[4,5-c]pyridin-5(4H)-yl)methyl)cyclohexane-1-carboxylic acid] |
| ≤ 10 | Cn1c(C(=O)Nc2cccc(-c3cccc(NC(=O)c4nc5c(n4C)CCN(C4CCOCC4)C5)c3Cl)c2Cl)nc2c1CCN(C[C@H]1CC[C@H](C(=O)O)CC1)C2 [Example 64, trans-4-((2-(2,2′-dichloro-3′-(1-methyl-5-(tetrahydro-2H-pyran-4-yl)-4,5,6,7-tetrahydro-1H-imidazo[4,5-c]pyridine-2-carboxamido)biphenyl-3-ylcarbamoyl)-1-methyl-6,7-dihydro-1H-imidazo[4,5-c]pyridin-5(4H)-yl)methyl)cyclohexane-1-carboxylic acid] |
| ≤ 10 | Cn1c(C(=O)Nc2cccc(-c3cccc(NC(=O)c4nc5c(n4C)CCN(C[C@H]4CC[C@H](C(=O)O)CC4)C5)c3Cl)c2Cl)nc2c1CCN(CCO)C2 [Example 65, trans-4-((2-((2,2′-dichloro-3′-(5-(2-hydroxyethyl)-1-methyl-4,5,6,7-tetrahydro-1H-imidazo[4,5-c]pyridine-2-carboxamido)-[1,1′-biphenyl]-3-yl)carbamoyl)-1-methyl-1,4,6,7-tetrahydro-5H-imidazo[4,5-c]pyridin-5-yl)methyl)cyclohexane-1-carboxylic acid] |
| ≤ 10 | C[C@H](O)CN1CCc2c(nc(C(=O)Nc3cccc(-c4cccc(NC(=O)c5nc6c(n5C)CCN(C[C@H]5CC[C@H](C(=O)O)CC5)C6)c4Cl)c3Cl)n2C)C1 [Example 66, trans-4-((2-((2,2′-dichloro-3′-(5-((S)-2-hydroxypropyl)-1-methyl-4,5,6,7-tetrahydro-1H-imidazo[4,5-c]pyridine-2-carboxamido)-[1,1′-biphenyl]-3-yl)carbamoyl)-1-methyl-1,4,6,7-tetrahydro-5H-imidazo[4,5-c]pyridin-5-yl)methyl)cyclohexane-1-carboxylic acid] |
| ≤ 10 | C[C@@H](O)CN1CCc2c(nc(C(=O)Nc3cccc(-c4cccc(NC(=O)c5nc6c(n5C)CCN(C[C@H]5CC[C@H](C(=O)O)CC5)C6)c4Cl)c3Cl)n2C)C1 [Example 67, trans-4-((2-((2,2′-dichloro-3′-(5-((R)-2-hydroxypropyl)-1-methyl-4,5,6,7-tetrahydro-1H-imidazo[4,5-c]pyridine-2-carboxamido)-[1,1′-biphenyl]-3-yl)carbamoyl)-1-methyl-1,4,6,7-tetrahydro-5H-imidazo[4,5-c]pyridin-5-yl)methyl)cyclohexane-1-carboxylic acid] |
| ≤ 10 | Cn1c(C(=O)Nc2cccc(-c3cccc(NC(=O)c4nc5c(n4C)CCN(C[C@H]4CC[C@@H](C(=O)O)CC4)C5)c3Cl)c2Cl)nc2c1CCNC2 [Example 68, cis-4-((2-((2,2′-dichloro-3′-(1-methyl-4,5,6,7-tetrahydro-1H-imidazo[4,5-c]pyridine-2-carboxamido)-[1,1′-biphenyl]-3-yl)carbamoyl)-1-methyl-1,4,6,7-tetrahydro-5H-imidazo[4,5-c]pyridin-5-yl)methyl)cyclohexane-1-carboxylic acid] |
| ≤ 10 | CN1CCc2c(nc(C(=O)Nc3cccc(-c4cccc(NC(=O)c5nc6c(n5C)CCN(C[C@H]5CC[C@@H](C(=O)O)CC5)C6)c4Cl)c3Cl)n2C)C1 [Example 69, cis-4-((2-((2,2′-dichloro-3′-(1,5-dimethyl-4,5,6,7-tetrahydro-1H-imidazo[4,5-c]pyridine-2-carboxamido)-[1,1′-biphenyl]-3-yl)carbamoyl)-1-methyl-1,4,6,7-tetrahydro-5H-imidazo[4,5-c]pyridin-5-yl)methyl)cyclohexane-1-carboxylic acid] |
| ≤ 10 | CCN1CCc2c(nc(C(=O)Nc3cccc(-c4cccc(NC(=O)c5nc6c(n5C)CCN(C[C@H]5CC[C@@H](C(=O)O)CC5)C6)c4Cl)c3Cl)n2C)C1 [Example 70, cis-4-((2-((2,2′-dichloro-3′-(5-ethyl-1-methyl-4,5,6,7-tetrahydro-1H-imidazo[4,5-c]pyridine-2-carboxamido)-[1,1′-biphenyl]-3-yl)carbamoyl)-1-methyl-1,4,6,7-tetrahydro-5H-imidazo[4,5-c]pyridin-5-yl)methyl)cyclohexane-1-carboxylic acid] |
| ≤ 10 | Cn1c(C(=O)Nc2cccc(-c3cccc(NC(=O)c4nc5c(n4C)CCN(C[C@H]4CC[C@@H](C(=O)O)CC4)C5)c3Cl)c2Cl)nc2c1CCN(CC1CC1)C2 [Example 71, cis-4-((2-((2,2′-dichloro-3′-(5-(cyclopropylmethyl)-1-methyl-4,5,6,7-tetrahydro-1H-imidazo[4,5-c]pyridine-2-carboxamido)-[1,1′-biphenyl]-3-yl)carbamoyl)-1-methyl-1,4,6,7-tetrahydro-5H-imidazo[4,5-c]pyridin-5-yl)methyl)cyclohexane-1-carboxylic acid] |
